From patent US20170172994A1, “COMPOSITIONS AND METHODS FOR TREATING BACTERIAL INFECTIONS” (WOCKHARDT LIMITED, priority 2013, published 2017)
Read-outs that look alike come from different tables or passages of the source.

Legend:
P. aeruginosa PAO1 = experiment: Time kill study (viability count); assay type: cell-based; details: for Bacterial count: Compound of Formula (III) 4 μg/ml, alone or combined; for Bactericidal action (in words): P. aeruginosa PAO1, standalone or combination, Tables 6 and 7
Protocol: (§1) The antibacterial effectiveness of various antibacterial agents in presence of a compound of Formula (III) was investigated and the results are detailed below. In a typical study, overnight cultures in Trypticase soya broth (TSB) were brought to log phase by 1 in 10 dilution in fresh cation adjusted Mueller Hinton Broth (MHB) and incubation for 2.5 hours at 35° C. in orbital shaker. Log phase cultures were diluted to desired inoculums in flasks with MHB, containing various drug concentrations. Flasks were incubated at 35° C. in orbital shaker with rotational speed of 125 rpm. Viability count was determined by 1 in 10 serial dilutions of samples in normal saline and surface spreading of 10 μl of dilutions in duplicate on Trypticase soya agar plates. Plates were incubated for 24 hours at 35° C. and colonies were enumerated to determine the colony forming units (CFU) per ml volume.

E. coli ATCC 25922 [1] = experiment: Time kill study (viability count); assay type: cell-based; details: for Bacterial count: Compound of Formula (III) 2 μg/ml, alone or combined; for Bactericidal action (in words): E. coli ATCC 25922, standalone or combination, Tables 3 to 5
Protocol: as §1

[2] = system: Acinetobacter baumannii NCTC 13304 producing carbapenem hydrolyzing Class D OXA enzyme (OXA 27); experiment: Time kill study (viability count); assay type: cell-based; details: Cefepime 8 μg/ml, Compound of Formula (III) 8 μg/ml, Imipenem 16 μg/ml
Protocol: as §1

[3] = system: Pseudomonas aeruginosa NCTC 13437 producing carbapenem hydrolyzing MBL (VIM 10) & Class A (VEB1); experiment: Time kill study (viability count); assay type: cell-based; details: Cefepime 8 μg/ml, Compound of Formula (III) 8 μg/ml, Imipenem 16 μg/ml
Protocol: as §1

E. coli ATCC 25922 [4] = experiment: Microbiological drug diffusion assay, standalone compounds in absence of beta-lactamase enzymes; assay type: cell-based; details: Escherichia coli, ATCC25922, 40 μg/ml, no beta-lactamase, read-out: Inhibition zone diameter
Protocol: Next, the beta-lactamase stability of some of these compounds was evaluated. In a typical stability study, ESBL enzymes from K. pneumoniae S48 producing Metalo betalactamase (NDM4) and Class A (CTX-M, SHV, TEM) beta-lactamase were isolated from freshly grown culture by 5 repetitive cycles of freeze and thaw in liquid nitrogen. […] After the stipulated incubation duration, the test compounds were extracted from the reaction mixture by the addition of 0.5 ml of Acetonitrile in 1:1 ratio (final concentration of test compound—40 μg/ml) and centrifuged at 12000 rpm for 2 min to separate precipitated protein. The activity of test compounds was measured from the supernatant by performing microbiological drug diffusion assay. For drug diffusion assay, Muller-Hinton Agar (MHA) seeded with E. coli ATCC 25922 was poured on to a bioassay plate placed on a flat surface and allowed to solidify. Appropriate concentration of the standalone and enzyme treated test compound dilutions were added to 6 mm wells cut with the help of a borer. The antibacterial activity of the test compounds was measured in terms of zones of inhibition appearing after 18-24 hours of incubation at 37° C. Measurement of diameter of zone of inhibition was undertaken to the nearest whole value with the help of ruler.

[5] = system: K. pneumonia S48 expressing multiple ESBLs including MBL (NDM4) and Class A (CTX-M, SHV, TEM); assay type: cell-based, K. pneumoniae; details: Cefepime 8 μg/ml, Compound of Formula (III) 2 μg/ml, Clavulanic acid 2 μg/ml, Mecillinam 2 μg/ml, Imipenem 8 μg/ml
Protocol: Log phase cultures were diluted to desired inoculums in flasks with MHB, containing various drug concentrations. Flasks were incubated at 35° C. in orbital shaker with rotational speed of 125 rpm. […] Plates were incubated for 24 hours at 35° C. and colonies were enumerated to determine the colony forming units (CFU) per ml volume.

[6] = system: MDR P. mirabilis G 186 producing NDM & TEM β-lactamases; experiment: Time kill study at MFC and MSC; assay type: cell-based; details: Cefepime 8 mcg/ml (MFC), Compound of Formula (III) 0.25 mcg/ml (MSC), Imepenem 8 mcg/ml
Protocol: (§2) The synergistic killing effect of the combinations according to invention was studied by performing time kill studies. In a typical time kill study, the freshly grown cultures were diluted to the required cell density (initial starting inoculum) in Cation adjusted Muller Hinton broth medium (BD, USA). The antibacterial agents (either alone or in combination) at the required concentrations were added into the culture-containing medium. The samples were incubated under shaking condition (120 rpm) at 37° C. Enumeration of viable bacterial count was done every 2 hour by diluting in normal saline and plating on to the Tryptic Soya Agar plates (BD, USA). The plates were incubated for 24 hours to arrive at the viable bacterial count. The results are expressed in terms of Log CFU per ml. In general, the decrease of 1 Log CFU/ml, corresponds to 90% killing of bacteria. Similarly, 2 Log CFU/ml reductions indicates to 99% killing of bacteria and 3 Log CFU/ml reductions is equal to 99.9% killing of bacteria.

[7] = system: MDR Klebsiella pneumoniae B 88 producing NDM, SHV & TEM beta-lactamases; experiment: Time kill study at MFC and MSC; assay type: cell-based; details: Cefepime 8 mcg/ml (MFC), Compound of Formula (III) 0.12 mcg/ml (MSC), Imepenem 8 mcg/ml
Protocol: as §2

Question: `NC(=O)c1cc[n+](CC2=C(C(=O)O)N3C(=O)[C@@H](NC(=O)[C@@H](c4ccccc4)S(=O)(=O)[O-])[C@H]3SC2)cc1` [Cefsulodin] was tested. Which Bacterial count (P. aeruginosa PAO1; 0 hour, Cefsulodin 2 μg/ml) did it give?
Answer: The Bacterial count was 6.81 log (CFU/ml).

Question: And the Bacterial count (P. aeruginosa PAO1; 2 hours, Cefsulodin 2 μg/ml)?
Answer: The Bacterial count was 6.48 log (CFU/ml).

Question: What about the Bacterial count (P. aeruginosa PAO1; 4 hours, Cefsulodin 2 μg/ml) of the same molecule?
Answer: The Bacterial count was 5.07 log (CFU/ml).

Question: What about the Bacterial count (P. aeruginosa PAO1; 6 hours, Cefsulodin 2 μg/ml) of the same molecule?
Answer: Its Bacterial count is 4.74 log (CFU/ml).

Question: What about the Bacterial count (P. aeruginosa PAO1; 24 hours, Cefsulodin 2 μg/ml) of the same molecule?
Answer: Its Bacterial count is 9 log (CFU/ml).

Question: What about the “Bactericidal action (in words)” value (P. aeruginosa PAO1) of the same molecule?
Answer: Its value is “failed to cause consistent killing till 24 hour”.

Question: And the Bacterial count (E. coli ATCC 25922 [1]; 0 hour, Cefsulodin 16 μg/ml)?
Answer: The Bacterial count was 7.47 log (CFU/ml).

Question: What about the Bacterial count (E. coli ATCC 25922 [1]; 2 hours, Cefsulodin 16 μg/ml) of the same molecule?
Answer: Its Bacterial count is 8.4 log (CFU/ml).

Question: What about the Bacterial count (E. coli ATCC 25922 [1]; 4 hours, Cefsulodin 16 μg/ml) of the same molecule?
Answer: The Bacterial count was 8.8 log (CFU/ml).

Question: And the Bacterial count (E. coli ATCC 25922 [1]; 6 hours, Cefsulodin 16 μg/ml)?
Answer: The Bacterial count was 8.3 log (CFU/ml).

Question: What about the Bacterial count (E. coli ATCC 25922 [1]; 24 hours, Cefsulodin 16 μg/ml) of the same molecule?
Answer: The Bacterial count was 9 log (CFU/ml).

Question: What about the “Bactericidal action (in words)” value (E. coli ATCC 25922 [1]) of the same molecule?
Answer: The value was “did not exhibit any bactericidal action”.

Question: With `CO[C@@]1(NC(=O)Cc2cccs2)C(=O)N2C(C(=O)O)=C(COC(N)=O)CS[C@@H]21` [Cefoxitin] as the molecule, how does the Bacterial count (E. coli ATCC 25922 [1]; 0 hour, Cefoxitin 1 μg/ml) read?
Answer: The Bacterial count was 7.47 log (CFU/ml).

Question: What about the Bacterial count (E. coli ATCC 25922 [1]; 2 hours, Cefoxitin 1 μg/ml) of the same molecule?
Answer: The Bacterial count was 7.11 log (CFU/ml).

Question: What about the Bacterial count (E. coli ATCC 25922 [1]; 4 hours, Cefoxitin 1 μg/ml) of the same molecule?
Answer: Its Bacterial count is 6.7 log (CFU/ml).

Question: And the Bacterial count (E. coli ATCC 25922 [1]; 6 hours, Cefoxitin 1 μg/ml)?
Answer: The Bacterial count was 6.54 log (CFU/ml).

Question: What about the Bacterial count (E. coli ATCC 25922 [1]; 24 hours, Cefoxitin 1 μg/ml) of the same molecule?
Answer: Its Bacterial count is 9 log (CFU/ml).

Question: And the “Bactericidal action (in words)” value (E. coli ATCC 25922 [1])?
Answer: The value was “did not exhibit any significant bactericidal action”.

Question: Which Bacterial count (P. aeruginosa PAO1; 0 hour, Aztreonam 2 μg/ml) does the source give for `C[C@H]1[C@H](NC(=O)/C(=N\OC(C)(C)C(=O)O)c2csc(N)n2)C(=O)N1S(=O)(=O)O` [Aztreonam] here?
Answer: The Bacterial count was 5.74 log (CFU/ml).

Question: And the Bacterial count (P. aeruginosa PAO1; 2 hours, Aztreonam 2 μg/ml)?
Answer: Its Bacterial count is 6.3 log (CFU/ml).

Question: What about the Bacterial count (P. aeruginosa PAO1; 4 hours, Aztreonam 2 μg/ml) of the same molecule?
Answer: The Bacterial count was 6.65 log (CFU/ml).

Question: What about the Bacterial count (P. aeruginosa PAO1; 6 hours, Aztreonam 2 μg/ml) of the same molecule?
Answer: Its Bacterial count is 6.54 log (CFU/ml).

Question: What about the Bacterial count (P. aeruginosa PAO1; 24 hours, Aztreonam 2 μg/ml) of the same molecule?
Answer: Its Bacterial count is 7.15 log (CFU/ml).

Question: What about the “Bactericidal action (in words)” value (P. aeruginosa PAO1) of the same molecule?
Answer: Its value is “did not exhibit any bactericidal action”.

Question: What about the Bacterial count (E. coli ATCC 25922 [1]; 0 hour, Aztreonam 1 μg/ml) of the same molecule?
Answer: The Bacterial count was 7.47 log (CFU/ml).

Question: And the Bacterial count (E. coli ATCC 25922 [1]; 2 hours, Aztreonam 1 μg/ml)?
Answer: The Bacterial count was 7.48 log (CFU/ml).

Question: What about the Bacterial count (E. coli ATCC 25922 [1]; 4 hours, Aztreonam 1 μg/ml) of the same molecule?
Answer: The Bacterial count was 7.47 log (CFU/ml).

Question: And the Bacterial count (E. coli ATCC 25922 [1]; 6 hours, Aztreonam 1 μg/ml)?
Answer: Its Bacterial count is 7.48 log (CFU/ml).

Question: And the Bacterial count (E. coli ATCC 25922 [1]; 24 hours, Aztreonam 1 μg/ml)?
Answer: The Bacterial count was 7.5 log (CFU/ml).

Question: What about the “Bactericidal action (in words)” value (E. coli ATCC 25922 [1]) of the same molecule?
Answer: The value was “did not exhibit any bactericidal action”.

Question: With `C[C@@H](O)[C@H]1C(=O)N2C(C(=O)O)=C(SCCN=CN)C[C@H]12` [Imipenem] as the molecule, how does the Bacterial count ([2]; 0 hour) read?
Answer: Its Bacterial count is 6.3 log (CFU/ml).

Question: And the Bacterial count ([2]; 2 hours)?
Answer: Its Bacterial count is 7.2 log (CFU/ml).

Question: What about the Bacterial count ([2]; 4 hours) of the same molecule?
Answer: The Bacterial count was 7.9 log (CFU/ml).

Question: What about the Bacterial count ([2]; 6 hours) of the same molecule?
Answer: The Bacterial count was 7.9 log (CFU/ml).

Question: What about the Bacterial count ([2]; 8 hours) of the same molecule?
Answer: The Bacterial count was 8 log (CFU/ml).

Question: And the Bacterial count ([3]; 0 hour)?
Answer: The Bacterial count was 6.0 log (CFU/ml).

Question: What about the Bacterial count ([3]; 2 hours) of the same molecule?
Answer: The Bacterial count was 7.2 log (CFU/ml).

Question: And the Bacterial count ([3]; 4 hours)?
Answer: Its Bacterial count is 7.9 log (CFU/ml).

Question: What about the Bacterial count ([3]; 6 hours) of the same molecule?
Answer: The Bacterial count was 7.9 log (CFU/ml).

Question: And the Bacterial count ([3]; 12 hours)?
Answer: Its Bacterial count is 8.3 log (CFU/ml).

Question: And the zone of inhibition at 40 µg/mL (E. coli ATCC 25922 [4]; 0 hour)?
Answer: The zone of inhibition at 40 µg/mL was 22 mm.

Question: What about the zone of inhibition at 40 µg/mL (E. coli ATCC 25922 [4]; 1 hour) of the same molecule?
Answer: Its zone of inhibition at 40 µg/mL is 22 mm.

Question: What about the zone of inhibition at 40 µg/mL (E. coli ATCC 25922 [4]; 2 hours) of the same molecule?
Answer: The zone of inhibition at 40 µg/mL was 22 mm.

Question: And the zone of inhibition at 40 µg/mL (E. coli ATCC 25922 [4]; 24 hours)?
Answer: The zone of inhibition at 40 µg/mL was 22 mm.

Question: And the Bacterial count ([5]; 0 hour)?
Answer: Its Bacterial count is 5.5 log (CFU/ml).

Question: What about the Bacterial count ([5]; 2 hours) of the same molecule?
Answer: Its Bacterial count is 3.0 log (CFU/ml).

Question: And the Bacterial count ([5]; 4 hours)?
Answer: Its Bacterial count is 3.0 log (CFU/ml).

Question: What about the Bacterial count ([5]; 6 hours) of the same molecule?
Answer: The Bacterial count was 4.0 log (CFU/ml).

Question: What about the Bacterial count ([5]; 24 hours) of the same molecule?
Answer: The Bacterial count was 8.69 log (CFU/ml).

Question: And the Bacterial count ([6]; 0 hour)?
Answer: Its Bacterial count is 6.58 Log10 CFU/ml.

Question: And the Bacterial count ([6]; 2 hours)?
Answer: The Bacterial count was 7.2 Log10 CFU/ml.

Question: And the Bacterial count ([6]; 4 hours)?
Answer: The Bacterial count was 9.45 Log10 CFU/ml.

Question: And the Bacterial count ([6]; 6 hours)?
Answer: Its Bacterial count is 8.65 Log10 CFU/ml.

Question: And the Bacterial count ([6]; 8 hours)?
Answer: Its Bacterial count is 8.85 Log10 CFU/ml.

Question: And the Bacterial count ([7]; 0 hour)?
Answer: The Bacterial count was 6.14 Log10 CFU/ml.

Question: What about the Bacterial count ([7]; 2 hours) of the same molecule?
Answer: Its Bacterial count is 8.65 Log10 CFU/ml.

Question: And the Bacterial count ([7]; 4 hours)?
Answer: The Bacterial count was 8.7 Log10 CFU/ml.

Question: And the Bacterial count ([7]; 6 hours)?
Answer: Its Bacterial count is 8.74 Log10 CFU/ml.

Question: And the Bacterial count ([7]; 8 hours)?
Answer: Its Bacterial count is 8.78 Log10 CFU/ml.
